Measured values from PMC4627230, “Identification of TAX2 peptide as a new unpredicted anti-cancer agent” (Oncotarget, 2015).

What was measured:
[1] = tested on: HUVECs; assay: Endothelial tube formation assay on matrigel; format: cell-based, human
Description: Figure 2 TAX2 peptide impairs endothelial cell migration and inhibits angiogenesis in vitro and ex vivo A. HUVECs were treated with TAX2 (100 μM) or scrambled peptide (Ctrl, 100 μM). CD47 was immunoprecipitated from total protein lysates using anti-CD47 (clone B6H12) and non-specific IgGs were used as a negative control. Immunocomplexes were then submitted to SDS-PAGE and immunoblotted (IB) using specific TSP-1 and CD47 antibodies. Histogram represents the quantification of co-immunoprecipitated TSP-1 relative to immunoprecipitated CD47. Results are expressed as percentage compared to control (n = 3 separate experiments, t test). B. HUVECs (1 × 10^5 per well) were grown at confluence and then cell proliferation was inhibited by incubating with 10 μg/mL mitomycin C for 2 h. Migration assays were performed for 9 h with or without TAX2 peptide (100 μM), as described in Materials and Methods. Photographs (100×) were taken every 3 h. Graph represents the quantification of the wounded area. Each value is the mean of 3 independent experiments, each performed in quadruplicate. C. HUVECs (5 × 10^4 per well) were plated into the upper compartment of a Transwell membrane and incubated for 12 h in EGM-2 in the presence of 100 μM TAX2 peptide. Hoechst-stained migrating cells attached on outside surface of the top chamber were photographed (20× objective) and counted. Results are expressed as percentage of migrated cells as compared to control. Each value represents the mean of 5 independent experiments, each performed in triplicate.*p < 0.05, compared to control; t test. D. HUVECs (5 × 10^4) were cultured on matrigel layers in control conditions (Ctrl) or in the presence of TAX2. After 8 h incubation, HUVEC tube-like formation was observed on an inverted microscope (40×) and quantification of network total length was done using ImageJ software. Numeration of branching points, tubes and nodal structures was conducted using S.CORE system. Data are expressed as the mean ± SE from at least 3 independent experiments, each performed in triplicate. […] F. Total RNAs were purified from HUVECs transfected with non-silencing siRNA (siCtrl) or siRNA targeting TSP-1 (siTSP-1). The transcriptional level of TSP-1 was assessed by RT-PCR and normalized to β-actin. […] After 6 days incubation in the presence of 100 μM TAX2 or control peptide (Ctrl), images were taken with an inverted microscope (40×) and microvessel area was quantified using ImageJ software. […]
Figure 3 Anti-angiogenic properties of TAX2 are mediated by TSP-1 binding to CD36 A. Expression of CD36 in HUVECs was assessed by immunoblotting (left panel) and immunofluorescence staining (right panel, red). […] The presence of TSP-1 in immunocomplexes was quantified by densitometric analysis relative to immunoprecipitated CD36. […]

[2] = tested on: MIA PaCa-2 xenograft in BALB/C nu/nu mice; assay: MIA PaCa-2 human pancreatic carcinoma xenograft growth; format: in vivo, human tumor xenograft in mouse
Description: For the subcutaneous melanoma tumor model, suspensions of B16F1 cells (2.5 × 10^5 cells in 100 μL RPMI-1640 medium) were subcutaneously injected into the left flank of different randomized series of syngeneic C57BL/6 mice (n = 8–10 per group), as previously described. Intraperitoneal administrations of peptide (10 mg/kg mouse weight) or controls (physiological serum 0.9% (w/v) NaCl or a scrambled peptide) were performed at days 3, 5 and 7. In human pancreatic carcinoma xenograft experiments, 3 × 10^6 MIA PaCa-2 cells/mouse were implanted subcutaneously into the left flank of BALB/C athymic nude mice, then TAX2 intraperitoneal treatments (10 mg/kg mouse weight) were performed 3 times a week during 4 weeks starting at day 10 after tumor cells inoculation. Tumor volume was determined according to v = 0.5 A × B^2, where A denotes the largest dimension of the tumor and B represents the smallest dimension. At days indicated, mice were sacrificed and tumors were surgically extracted and fixed in 4% paraformaldehyde for further morphologic studies and for magnetic resonance imaging, or frozen for immunohistochemistry. Mice were also weighed every 2–3 days and daily checked for any modification in their behavior. Loss of 15% body weight was an indication for euthanasia as well as severe tumor necrosis, as it was sometimes associated with skin ulceration that would result in loss of body fluid and/or infection.

[3] = tested on: VEGFR2; assay: VEGF-induced VEGFR2 phosphorylation; format: cell-based, human; details: HUVECs, 100 μM for 12 h, then 30 ng/mL VEGF 5 min; n = 3
[4] = tested on: immobilized TSP-1 (thrombospondin from human platelets); assay: ELISA competition by unlabeled TAX2; format: binding; details: biotinylated TAX2 10 μg/mL; unlabeled competitor 0.001 to 5 mg/mL
Description: Microtiter plates (Nunc, ThermoFisher Scientific, Courtaboeuf, France) were coated overnight at 4°C with 0.5 μg TSP-1 in sodium carbonate-bicarbonate (BupH) buffer (Thermo Fisher Scientific). Plates were washed with PBS 0.1% BSA (Sigma-Aldrich) and non-specific sites were saturated during 30 min using 1% (w/v) BSA in BupH buffer. Biotin-labeled peptide (10 μg/mL, determined after dose-response assay from 0.01 to 100 μg/mL) was added in buffer containing 0.5% (w/v) BSA and incubated for 3 h at room temperature. Non-labeled peptide (0.001 to 5 mg/mL) was used as selective competitor. Plates were washed with PBS containing 0.1% (w/v) BSA and treated for 30 min with mouse anti-biotin antibody. Bound antibody was quantified using the mouse IgG Elite Vectastain ABC kit (Vector Laboratories) followed by incubation with 1-Step Turbo TMB substrate as a chromogen (ThermoFisher Scientific). The reaction was stopped with 0.5 M H2SO4 and absorbance was read at 450 nm.

## CEVSQLLKGDAC (disulfide) [TAX2, CD47-derived cyclic disulfide dodecapeptide …]
[1]; HUVECs on matrigel, 8 h, S.CORE
  formation of branching points, capillary tubes and nodal structures: decreased
[1]; HUVECs on matrigel, 8 h, at least 3 experiments in triplicate
  inhibition of pseudo-tube network formation (total network length): 40%
[1]; HUVECs transfected with siTSP-1, matrigel, 8 h
  effect on lumen formation under TSP-1 gene silencing: wholly abolished
[1]; HUVECs, 100 μM, 12 h, anti-CD36 blocking antibody, n = 3
  prevention of capillary structure formation in presence of CD36 blocking antibody: wholly reversed
[2]; 10 mg/kg i.p. 3 times a week for 4 weeks from day 10
  xenograft growth delay: strong delay
[2]; 10 mg/kg i.p. 3 times a week for 4 weeks from day 10, n = 9, p < 0.05
  decrease of tumor volume at day 38: 2 fold
[2]; 10 mg/kg i.p. 3 times a week from day 10, n = 15
  tumor volume at day 24, xenograft: no differences in measured tumor volume were observed
[2]; MIA PaCa-2 xenograft, bevacizumab data from ref [56]
  inhibition rate compared to 5 mg/kg bevacizumab twice weekly i.p.: higher inhibition rates
[3]
  VEGF-induced VEGFR2 phosphorylation: partially reverses VEGF-induced VEGFR2 phosphorylation
[4]
  competition with biotinylated TAX2 for TSP-1 binding: Competitive binding occurred in a dose-dependent fashion
